{"source": "patent US11578042B2", "about": "“3,5-diamino-6-chloro-N-(N-(4-(4-(2-(hexyl(2,3,4,5,6-pentahydroxyhexyl)amino)ethoxy)phenyl)butyl)carbamimidoyl)pyrazine-2-carboxamide” (Parion Sciences, Inc., priority 2011, dated 2023)", "key": {"CBE cells": {"test_system": "CBE cells", "test": "Airway hydration / surface liquid retention (in vitro CBE model)", "type": "cell-based, canine", "details": "10 μM, 50 μL applied apically, 8 hours", "experimental": "Primary CBE cells are plated onto collagen-coated, porous membranes maintained at an air-liquid interface to assess maintenance of surface liquid volume over time. At the start of the experiment, each 12 mm snapwell insert was removed from the plate containing air-liquid interface culture media, blotted dry, weighed, and 50 μL of vehicle (0.1% DMSO), or ENaC blocker (10 μM in 0.1% DMSO) applied to the apical surface and the mass was recorded. The inserts were immediately returned to a transwell plate (500 μL, Krebs Ringer Bicarbonate (KRB), pH 7.4 in lower chamber) and placed in a 37° C., 5% CO2 incubator. To reduce artifact due to an apical carbohydrate osmotic gradient upon water loss, glucose was not included in the apical buffer. […] The mass of surface liquid was converted to volume in μL. Data are reported as % initial volume (100%=50 μL).\nThe duration of sodium transport inhibition was determined indirectly by measuring the buffer retained after a 50 μl volume of experimental buffer was added to the apical surface of CBE cells."}, "[1]": {"details": "sheep, in vivo, iv"}, "[2]": {"test": "Plasma potassium levels in sheep of the MCC study", "details": "at effective / approximate ED50 doses", "procedure": "In these studies, adult sheep were restrained and nasally intubated with an endotracheal tube. Aerosolized test articles were administered over 10^−15 minutes to sheep. Radiolabeled ^99mTc-sulfur colloid (TSC, 3.1 mg/mL; containing approximately 20 mCi) was then administered at a specified time four or eight hours after test article. The radiolabeled aerosol was administered through the endotracheal tube for about 5 minutes. The sheep were then extubated, and total radioactive counts in the lung were measured every 5 minutes for a 1-hour observation period. The rate of radiolabel clearance from the lung is representative of the MCC rate in the animal. […] The model also allows for the collection of simultaneous PK/PD information through plasma and urine sampling over the test period."}, "[3]": {"test_system": "mucociliary clearance (MCC)", "test": "Mucociliary clearance (MCC) studies in sheep", "type": "in vivo", "details": "for AUC / Initial Slope (4.0-4.5 h): Table 10, 4 mL, 4 h post-dose", "experimental": "Assay 2. Mucociliary Clearance (MCC) Studies in Sheep\nThe animal model that has been used most often to measure changes in MCC is the sheep model.\nIn these studies, adult sheep were restrained and nasally intubated with an endotracheal tube. Aerosolized test articles were administered over 10^−15 minutes to sheep. Radiolabeled ^99mTc-sulfur colloid (TSC, 3.1 mg/mL; containing approximately 20 mCi) was then administered at a specified time four or eight hours after test article. The radiolabeled aerosol was administered through the endotracheal tube for about 5 minutes. The sheep were then extubated, and total radioactive counts in the lung were measured every 5 minutes for a 1-hour observation period. The rate of radiolabel clearance from the lung is representative of the MCC rate in the animal. The advantage of this system is that it closely simulates the human lung environment. The model also allows for the collection of simultaneous PK/PD information through plasma and urine sampling over the test period. There are also several techniques to measure the drug concentrations on the airway surface during the MCC measurements. These include the collection of exhaled breath condensates or a filter paper method to obtain ASL via bronchoscopy.\nTest solutions were aerosolized using a Raindrop nebulizer at a flowrate of eight liters per minute and connected to a dosimetry system consisting of a solenoid valve and a source of compressed air (20 psi). […] Using a Raindrop nebulizer, radiolabeled TSC was administered over approximately 3 minutes either 4 or 8 hours after drug treatment to evaluate efficacy/durability. Radioactive counts were measured in a central region in the right lung at 5 min intervals for one hour with a gamma camera."}, "Log D": {"test": "Log D", "type": "physicochemical"}, "HBE cells": {"test_system": "HBE cells", "test": "Airway surface liquid drug clearance and metabolism by human airway epithelium", "details": "25 μL of 25 μM on apical surface of HBE, 37° C.", "source_text": "Assay 3. d. Airway Surface Liquid Drug (ASL) Clearance and Metabolism by Human Airway Epithelium"}, "[4]": {"test": "Human plasma protein binding", "type": "in vitro ADME"}, "Human plasma metabolism": {"test": "Human plasma metabolism", "type": "in vitro ADME", "details": "read-out: Human Plasma Metabolism (t½)"}, "[5]": {"details": "sheep MCC model, given as concentration"}}, "note": "Several values for one entry are separate records, joined by “and”; a condition that tells them apart may be missing. Equal entries are not always repeated. Entries after “also recorded” stand apart in the source; their conditions may differ."}
{"smiles": "N=C(N)NC(=O)c1nc(Cl)c(N)nc1N", "note": "[Amiloride, amiloride]", "values": [{"measurement": "surface liquid retained (% initial volume)", "setting": "CBE cells", "result": "25±19.2", "unit": "%"}]}
{"smiles": "N=C(NCCCCc1ccc(OCCN(C[C@H](O)[C@@H](O)[C@H](O)[C@H](O)CO)C[C@H](O)[C@@H](O)[C@H](O)[C@H](O)CO)cc1)NC(=O)c1nc(Cl)c(N)nc1N", "note": "[Comparative Example 1]", "values": [{"measurement": "dose recovered in urine", "setting": "[1]", "result": 43, "unit": "%"}, {"measurement": "effect on plasma potassium", "setting": "[2]", "result": "causes a rise in plasma potassium"}, {"measurement": "ED50", "setting": "[3]; Ovis aries, sheep MCC at 8 hrs, read-out: Approximate ED50", "result": "~0.24", "unit": "µmol/kg"}, {"measurement": "AUC, % of maximal effect", "setting": "[3]; Table 7, 3000 μM, 8 hrs", "result": "(47%)"}, {"measurement": "AUC, change from vehicle", "setting": "[3]; Table 7, 3000 μM, 8 hrs", "result": 2.9, "unit": "% CI*h"}, {"measurement": "Max Clearance, % of maximal effect", "setting": "[3]; Table 7, 3000 μM, 8 hrs", "result": "(31%)"}, {"measurement": "Max Clearance, change from vehicle", "setting": "[3]; Table 7, 3000 μM, 8 hrs", "result": 4, "unit": "%"}, {"measurement": "Slope (8-8.5 h), % of maximal effect", "setting": "[3]; Table 7, 3000 μM, 8 hrs", "result": "(60%)"}, {"measurement": "Slope (8-8.5 h), change from vehicle", "setting": "[3]; Table 7, 3000 μM, 8 hrs", "result": 6.1}, {"measurement": "Approximate ED50", "setting": "[3]; sheep MCC at 8 hrs, listed as Comp. Ex. 1", "result": "~240", "unit": "nmol/kg"}, {"measurement": "ED50 (AUC=47%)", "setting": "[3]; [5]", "result": "approximately 3000 μM"}, {"measurement": "approximate ED50 dose", "setting": "[3]; [5]", "result": "~3000", "unit": "µM"}]}
{"smiles": "N=C(NCCCCc1ccc(OC[C@H](N)C(N)=O)cc1)NC(=O)c1nc(Cl)c(N)nc1N", "note": "[Comparative Example 4, (S)-3,5-diamino-6-chloro-N-(N-(4-(4-(2,3-diamino-3-oxopropoxy)phenyl)butyl)carbamimidoyl)pyrazine-2-carboxamide]", "values": [{"measurement": "effect on plasma potassium", "setting": "[2]", "result": "has elevations of plasma K; also recorded: significant increase in plasma potassium levels"}, {"measurement": "logD", "setting": "Log D", "result": 0.64}, {"measurement": "% of Apical Mass as Metabolites (2 h)", "setting": "HBE cells", "result": "83% and 83.0 ± 3.5%"}, {"measurement": "% on Basolateral Side as Metabolites (2 h)", "setting": "HBE cells", "result": "94.7 ± 1.0", "unit": "%"}, {"measurement": "fraction unbound", "setting": "[4]", "result": 0.24}, {"measurement": "AUC", "setting": "[3]; 11.2 μg/kg", "result": "6.9 ± 1.0", "unit": "% CI × h"}, {"measurement": "Initial Slope (4.0-4.5 h)", "setting": "[3]; 11.2 μg/kg", "result": "14.5 ± 1.3"}, {"measurement": "AUC", "setting": "[3]; 112 μg/kg", "result": "14.1 ± 2.2", "unit": "% CI × h"}, {"measurement": "Initial Slope (4.0-4.5 h)", "setting": "[3]; 112 μg/kg", "result": "32.2 ± 7.3"}, {"measurement": "approximate ED50 dose", "setting": "[3]; [5]", "result": "~3000", "unit": "µM"}, {"measurement": "half-life", "setting": "Human plasma metabolism", "result": 37, "unit": "min"}]}
